The numbers were not newly measured in EP0615447B1, “SLOW-RELEASE FLURBIPROFEN-CONTAINING MEDICAMENT AND ITS USE” (ALFATEC-PHARMA GmbH, priority 1991, dated 1993), which cites them from elsewhere.

For data set [1] the following is noted: water.
The conditions of data set [2]: in vivo.
For data set [3] the following is noted: aqueous medium; compared with the racemate.

Each structure is given as a SMILES string.

As for `CC(C(=O)O)c1ccc(-c2ccccc2)c(F)c1` (racemic) [Flurbiprofen, 2-(2-Fluor-4-biphenylyl)propionsäure], the pKA is given as 4,16. For the same compound, in data set [1], the “Löslichkeit in Wasser” value is recorded as 32,5 mg/l. In addition, the Plasmahalbwertszeit in data set [2] is 3,9 h.
In the case of `CC(C(=O)O)c1ccc(-c2ccccc2)c(F)c1` (racemic) [Pseudoracemat], in data set [3], the Auflösungsgeschwindigkeit entry was “wesentlich höher”.
